Holding throughout (type): in vivo
Series [1] deals with Tetranychus urticae (spider mites - adult). Nature of the series: insecticidal mortality test, contact, French bean leaf. The following applies: for mortality at 100 ppm: read-out: grading of mortality, Tua, 100 ppm, 3 days. As for the experimental part: (§1) The activity of the Product was determined using a variety of insect pests. The Product was used in the form of liquid preparations containing 500, 250 or 100 parts per million (ppm) by weight of the Product. The preparations were made by dissolving the Product in acetone and diluting the solutions with water containing 0.01% by weight of a wetting agent sold under the trade name "LlSSAPOL" NX until the liquid preparations contained the required concentration of the Product. "Lissapol" is a Registered Trade Mark.
(§2) The test procedure adopted with regard to each pest was basically the same and comprised supporting a number of the pests on a medium which was usually a host plant or a foodstuff on which the pests feed, and treating either or both the pests and the medium with the preparations. The mortality of the pests was then assessed at periods usually varying from one to three days after the treatment.
(§3) The results of the tests are given in Table III for each of the Products, at the rate in parts per million given in the second column as a grading of mortality designated as A, B or C wherein A indicates 80-100% mortality, B indicates 50-79% mortality and C indicates less than 50% mortality.
(§4) In Table 111 the pest organism used is designated by a letter code and the pests species, the support medium or food, and the type and duration of test is given in Table II.

A further series relates to Myzus persicae (aphids). Nature of the series: insecticidal mortality test, contact, Chinese Cabbage leaf. To be noted: 72 h, read-out: grading of mortality, MP. As for the experimental part:
as §1, §2, §3, §4

Series [2] deals with Nephotettix cincticeps (green leaf hopper - nymphs). The series can be described thus: insecticidal mortality test, contact, rice plant. The following applies: 100 ppm, contact, rice plant, read-out: grading of mortality, NC. As for the experimental part: as §1, §2, §3, §4
Series [3] concerns Heliothis virescens (tobacco budworm - larvae). Nature of the series: insecticidal mortality test, residual, cotton leaf. The following applies: residual, cotton leaf, read-out: grading of mortality, HV. The procedure:
as §1, §2, §3, §4

Series [4] concerns Spodoptera exigua (lesser army worm - larvae). The series can be described thus: insecticidal mortality test, residual, cotton leaf. To be noted: read-out: grading of mortality, SP. As for the experimental part: as §1, §2, §3, §4
The subject of series [5] is Diabrotica balteata (rootworm larvae). Nature of the series: insecticidal mortality test, residual, filter paper/maize seed. The following applies: read-out: grading of mortality, DB. The procedure: as §1, §2, §3, §4
Series [6] concerns Blattella germanica (cockroach nymphs). The series can be described thus: insecticidal mortality test, residual, plastic pot. The following applies: 72 h, read-out: grading of mortality, BG. As for the experimental part:
as §1, §2, §3, §4

Series [7] concerns Musca domestica (houseflies - adults). The series can be described thus: insecticidal mortality test, contact, cotton wool/sugar. The following applies: read-out: grading of mortality, MD. The procedure: as §1, §2, §3, §4
Series [8] concerns Blattella germanica (adult males). Nature of the series: Blattella germanica knockdown test. The following applies: for mortality at 250 ppm / pest or weed control at 250 ppm: Blattella germanica; for mortality at 250 ppm: 48 h; for pest or weed control at 250 ppm: topical, Tetramethrin: mean of 27 observations; for KT₉₀: time taken to knockdown 90% of test insects. As for the experimental part:
The test compound was dissolved in acetone (2 cm³) and the solution diluted to a concentration of 250 ppm with kerosene. 1 cm³ Of this preparation was sprayed onto 10 Blattella germanica (adult males) held in a netted plastic pot in a Burkhard potter Tower. Assessment of knockdown was performed at intervals of 5 minutes up to a total of 20 minutes. On removal from the Burkhard Potter Tower, the insects were held at 25°C and 65% relative humidity for 48 hours, and an assessment of mortality performed. Each test was repeated.
In some tests, additional knockdown assessment was performed at intervals of 1, 2, 3 and 4 minutes, and KT₅₀ and KT₉₀ values determined (the time taken, in minutes, to knockdown 50% and 90% respectively of test insects).

The subject of series [9] is Musca domestica (adult females). The series can be described thus: Musca domestica knockdown test. To be noted: 1 cm3 of 30 ppm solution in acetone, Kearns and March chamber, 20 adult females, observed over 10 minutes; average of 2 replicates (* single replicate, ** average of 7 tests). The procedure: 1 cm³ Of a 30 ppm solution of the test chemical in acetone was sprayed into a Kearns and March chamber containing 20 Musca domestica (adult females). Knockdown was observed over a period of 10 minutes and KT₅₀ and KT₉₀ values (the time taken for 50% and 90% of the insects to be knocked down) were calculated from the observations. The results given in Table V represent average KT values of 2 replicates except where otherwise stated.

Where [10] appears, read: 250 ppm spray, insects held at 25°C and 65% relative humidity for 48 hours, tests 1 and 2 are repeats, read-out: % MORTALITY 48 hrs.
Where [11] appears, read: 10 min, 250 ppm in kerosene, 1 cm3 sprayed onto 10 adult males, 10 min, tests 1 and 2 are repeats, read-out: % KNOCKDOWN OBSERVED 10 min.
The mark [12] stands for this setting: 5 min, 250 ppm in kerosene, 1 cm3 sprayed onto 10 adult males, 5 min, tests 1 and 2 are repeats, read-out: % KNOCKDOWN OBSERVED 5 min.
The mark [13] stands for this setting: 250 ppm spray, Tetramethrin: mean of 3 assessments.
Setting [14] is: 250 ppm in kerosene, 1 cm3 sprayed onto 10 adult males, tests 1 and 2 are repeats.
Where [15] appears, read: 48 h, test duration of 2 days (footnote +).

These results are taken from patent EP0302626A2, “Insecticidal compounds” (IMPERIAL CHEMICAL INDUSTRIES PLC, priority 1987, dated 1989).

“And” between values parts separate entries of the source, which are not always exact repeats. Identical values can stand only once. Like-named read-outs stand apart in the source and are kept apart here. Marks after values point to notes of the source that are not given here. Bounds are passed on as bounds.

Broadly, the mortality is the percentage killed.

Regarding `CC1(C)C(C=C(Cl)C(F)(F)F)C1C(=O)OCc1c(F)c(F)c(CC#N)c(F)c1F` (racemic) [Product XII, 4-(Cyanomethyl)-2,3,5,6-tetrafluorobenzyl (1RS, cis)-3-(Z-2-chloro-3,3,3-trifluoroprop-1-en-1-yl)-2,2-dimethylcyclopropanecarboxylate], the mortality at 100 ppm was 80 to 100% in [1] (Tetranychus urticae, 72 h); less than 50% in the series with Myzus persicae (aphids); 80 to 100% in series [2] (72 h, 3 days); 80 to 100% in series [3] (72 h, 3 days); 80 to 100% in series [4] (72 h); 80 to 100% in series [5] (72 h). The mortality at 100 ppm in series [6] and in series [7] (24 h) was 80 to 100% each time. Further, in [8] (setting [10]), the mortality at 250 ppm worked out at 100%. Besides, the pest or weed control at 250 ppm in [8] (setting [11]) stood at 100%. This compound yielded a KT₅₀ in series [9] of 6.8 min. The same compound displayed a KT₉₀ in series [9] of 9.8 min.
Consider `CC1(C)C(C=C(Cl)C(F)(F)F)C1C(=O)OCc1c(F)c(F)c(CCl)c(F)c1F` (racemic) [Product III, 4-(chloromethyl)-2,3,5,6-tetrafluorobenzyl (1RS,cis)-3-(Z-2-chloro-3,3,3-trifluoroprop-1-en-1-yl)-2,2-dimethylcyclopropanecarboxylate], for which the mortality at 100 ppm was in the range of 80 to 100% in [1] (Tetranychus urticae, 72 h); 80 to 100% with Myzus persicae (aphids); 80 to 100% in series [2] (72 h, 3 days); 80 to 100% in series [3] (72 h, 3 days); 80 to 100% in [4] (72 h); 80 to 100% in [5] (72 h). Further, the mortality at 100 ppm in series [6] was 80 to 100%; in [7] (24 h), less than 50%. For the same compound, the mortality at 250 ppm in [8] (setting [10]) amounted to 100%. Also, in series [8] (setting [12]), the pest or weed control at 250 ppm is 100%. Further, the KT₅₀ in series [9] is 10 min. In addition, the KT₉₀ in series [9] was determined as 10 min.
For the compound `CC(C)=CC1C(C(=O)OCN2C(=O)C3=C(CCCC3)C2=O)C1(C)C` (stereo not drawn) [Tetramethrin, reference compound], the KT₅₀ in series [8] (250 ppm spray, time taken to knockdown 50% of test insects, Tetramethrin: mean of 3 assessments) is 1.7** mins; in series [9], 4.0** mins. Also, the KT₉₀ in series [8] (setting [13]) is reported as 3.2** mins; in [9], 7.5** mins. For the same compound, in series [8] (read-out: % MORTALITY 48 hrs, 250 ppm spray, insects held at 25°C and 65% relative humidity for 48 hours, tests 1 and 2 are repeats), the mortality at 250 ppm worked out at 50%. For the same compound, the pest or weed control at 250 ppm was 80% in series [8] (setting [12]) and 100% in series [8] (setting [11]).
As for `CC1(C)C(C=C(Cl)C(F)(F)F)C1C(=O)OCc1c(F)c(F)c(CN=[N+]=[N-])c(F)c1F` (racemic) [Product X, 4-(Azidomethyl)-2,3,5,6-tetrafluorobenzyl (1RS, cis)-3-(Z-2-chloro-3,3,3-trifluoroprop-1-en-1-yl)-2,2-dimethylcyclopropanecarboxylate], the mortality at 100 ppm in [1] (Tetranychus urticae, 72 h) lay in the range of 80 to 100%; in the series on Myzus persicae (aphids) it was 80 to 100%; in series [2] (72 h, 3 days), 80 to 100%; in series [3] (72 h, 3 days) it was 80 to 100%; in series [4] (72 h), 80 to 100%; in [5] (72 h), 80 to 100%. In addition, the mortality at 100 ppm in series [6] and in series [7] (24 h) was 80 to 100% each time. Further, the “% KNOCKDOWN OBSERVED 15 min” value in series [8] (setting [14]) came to 100%. The mortality at 250 ppm in series [8] (setting [10]) was 100%. Further, the pest or weed control at 250 ppm in series [8] (setting [11]) was 70%. Further, the KT₅₀ in series [9] was 5.0* mins. Also, the KT₉₀ in series [9] is listed as 9.0* mins.
Consider `CC1(C)C(C=C(Cl)C(F)(F)F)C1C(=O)OCc1c(F)c(F)c(COC=O)c(F)c1F` (racemic) [Product IX, 4-(Formyloxymethyl)-2,3,5,6-tetrafluoromethyl (1RS, trans)-3-(Z-2-chloro-3,3,3-trifluoroprop-1-en-1-yl)-2,2-dimethylcyclopropanecarboxylate], for which the “grading of mortality, Tua” value in [1] (100 ppm, 3 days, listed as IX, 4320 min) is “C (C indicates less than 50% mortality)”. For the same compound, the mortality at 100 ppm was 80 to 100% with Myzus persicae (aphids); 80 to 100% in series [2] (setting [15]); 80 to 100% in series [3] (setting [15]); 80 to 100% in [4] (48 h); less than 50% in series [5] (48 h); 80 to 100% in [6]. Also, the mortality at 100 ppm in [7] (72 h) was less than 50%. For the same compound, the mortality at 250 ppm in series [8] (setting [10]) worked out at 100%. Besides, the pest or weed control at 250 ppm in series [8] (setting [11]) was found to be 100%. Further, in series [9], the KT₅₀ was 10* mins. Also, the KT₉₀ in [9] is on record as 10* mins.
As for `CC(C)=NOCc1c(F)c(F)c(COC(=O)[C@@H]2[C@@H](/C=C(\Cl)C(F)(F)F)C2(C)C)c(F)c1F` (racemic) [Product XXIII, 4-[(prop-2-ylidenamino)oxymethyl]-2,3,5,6-tetrafluorobenzyl (1RS, trans)-3-(Z-2-chloro-3,3,3-trifluoroprop-1-en-1-yl)-2,2-dimethylcyclopropanecarboxylate], the mortality at 100 ppm in series [1] (Tetranychus urticae, 72 h) is 80 to 100%; in the series with Myzus persicae (aphids), 80 to 100%; in series [2] (setting [15]), 80 to 100%; in series [3] (setting [15]), less than 50%; in [4] (48 h) it was 80 to 100%; in [5] (48 h) it was 80 to 100%. Moreover, the mortality at 100 ppm in [6] and in [7] (72 h) was less than 50% throughout. In addition, the “% KNOCKDOWN OBSERVED 15 min” value in series [8] (setting [14]) worked out at 10%. In addition, in series [8] (250 ppm in kerosene, 1 cm3 sprayed onto 10 adult males, 20 min, tests 1 and 2 are repeats), the “% KNOCKDOWN OBSERVED 20 min” value came out at 10%. In series [8] (setting [13]), the KT₉₀ was found to be 9.3 min. The mortality at 250 ppm in [8] (setting [10]) amounted to 100%.
`CC=NNc1c(F)c(F)c(COC(=O)C2C(C=C(Cl)C(F)(F)F)C2(C)C)c(F)c1F` (stereo not drawn) [Product XIV, E/Z-4-(ethylidenehydrazino)-2,3,5,6-tetrafluorobenzyl (1RS, cis)-3-(Z-2-chloro-3,3,3-trifluoroprop-1-en-1-yl)-2,2-dimethylcyclopropanecarboxylate]: the mortality at 500 ppm in series [1] (Tetranychus urticae, 72 h, read-out: grading of mortality, Tua, 500 ppm, 3 days) is less than 50%; with Myzus persicae (aphids), 80 to 100%; in series [3] (72 h, 500 ppm, 3 days), 80 to 100%; in series [5] (72 h), 80 to 100%; in series [6], 80 to 100%; in series [7] (24 h) it was 80 to 100%. Also, in [8] (setting [14]), the “% KNOCKDOWN OBSERVED 15 min” value was determined as 100%. Further, the “% MORTALITY 48 hrs” value in series [8] (250 ppm spray, insects held at 25°C and 65% relative humidity for 48 hours, tests 1 and 2 are repeats, 2880 min) was 50% and 90%. Moreover, the KT₅₀ in series [9] worked out at 6.6 min. This compound also showed a KT₉₀ in series [9] of 9.4 min.
